Where “and” joins values, the source holds several entries; their conditions need not be identical. Equal entries are not always repeated. Where two headings read alike, the source gives them in different places.
Legend:
wild-type EGFR = wild-type EGFR (Homo sapiens, UniProt P00533); experiment: EGFR kinase assay (ELISA); conditions: for IC50: ELISA, 3 μmol/L ATP; for A450: raw ELISA absorbance
H460 cells = experiment: CCK-8 antiproliferation assay, H460; conditions: for Inhibitory efficacy: H460 cells; for IC50: NCI-H460, 48 h, read-out: IC50 (μM) H460, CCK-8, 48 h, average ± SD of three independent experiments
A549 cells = experiment: CCK-8 antiproliferation assay, A549; conditions: for IC50: A549, 48 h, read-out: IC50 (μM) A549, CCK-8, 48 h, average ± SD of three independent experiments; for Inhibitory efficacy: A549 cells
PC-9 cells = experiment: CCK-8 antiproliferation assay, PC-9; conditions: for IC50: PC-9, 48 h, read-out: IC50 (μM) PC-9; for Inhibitory efficacy: single repeats (Repeat 1-3), given as fraction
H1975 cells = experiment: CCK-8 antiproliferation assay, H1975; conditions: for Inhibitory efficacy: H1975 cells; for IC50: NCI-H1975, 48 h, read-out: IC50 (μM) H1975, CCK-8, 48 h, average ± SD of three independent experiments
Procedure: The compounds were dissolved in DMSO to make a 20 μM stock solution and diluted to the concentration of working solutions with complete growth medium before administration.
Cells were seeded in 96-well plates: 3,000–5,000 cells/well in 100 ul. One day after seeding, the test compounds at concentration between 1.0 and 16.0 μ M or 0.1% DMSO (as control) were added to cells in triplicate. 48 h later, CCK-8 was added and incubated the plate for 1–4 h in the incubator. The absorbance at 450 nm were measured using a microplate reader (Bio-Tek).

[1] = concentration 0.03 nM, one value per replicate column, 3e-05 µM
[2] = concentration 0.3 nM, one value per replicate column
[3] = concentration 0.3 nM, one value per replicate column, 0.0003 µM
[4] = concentration 3 nM, one value per replicate column
[5] = concentration 3 nM, one value per replicate column, 0.003 µM
[6] = concentration 30 nM, one value per replicate column
[7] = concentration 30 nM, one value per replicate column, 0.03 µM
[8] = concentration 300 nM, one value per replicate column
[9] = concentration 300 nM, one value per replicate column, 0.3 µM
[10] = concentration 3000 nM, one value per replicate column
[11] = concentration 3000 nM, one value per replicate column, 3 µM
[12] = concentration 30000 nM, one value per replicate column
[13] = concentration 30000 nM, one value per replicate column, 30 µM
[14] = 2uM, given as fraction, Repeat 1-3
[15] = Homo sapiens, NCI-H460, read-out: Inhibitory efficacy, H460 cells, 2uM, given as fraction, Repeat 1-3
[16] = 4uM, given as fraction, Repeat 1-3
[17] = 8uM, given as fraction, Repeat 1-3
[18] = 16uM, given as fraction, Repeat 1-3
[19] = Homo sapiens, NCI-H1975, read-out: Inhibitory efficacy, H1975 cells, 2uM, given as fraction, Repeat 1-3
[20] = Homo sapiens, NCI-H1975, read-out: Inhibitory efficacy, H1975 cells, 4uM, given as fraction, Repeat 1-3
[21] = Homo sapiens, NCI-H1975, read-out: Inhibitory efficacy, H1975 cells, 8uM, given as fraction, Repeat 1-3
[22] = Homo sapiens, NCI-H1975, read-out: Inhibitory efficacy, H1975 cells, 16uM, given as fraction, Repeat 1-3
[23] = 1uM, given as fraction, Repeat 1-3

Sequence of wild-type EGFR (P00533 25-1210): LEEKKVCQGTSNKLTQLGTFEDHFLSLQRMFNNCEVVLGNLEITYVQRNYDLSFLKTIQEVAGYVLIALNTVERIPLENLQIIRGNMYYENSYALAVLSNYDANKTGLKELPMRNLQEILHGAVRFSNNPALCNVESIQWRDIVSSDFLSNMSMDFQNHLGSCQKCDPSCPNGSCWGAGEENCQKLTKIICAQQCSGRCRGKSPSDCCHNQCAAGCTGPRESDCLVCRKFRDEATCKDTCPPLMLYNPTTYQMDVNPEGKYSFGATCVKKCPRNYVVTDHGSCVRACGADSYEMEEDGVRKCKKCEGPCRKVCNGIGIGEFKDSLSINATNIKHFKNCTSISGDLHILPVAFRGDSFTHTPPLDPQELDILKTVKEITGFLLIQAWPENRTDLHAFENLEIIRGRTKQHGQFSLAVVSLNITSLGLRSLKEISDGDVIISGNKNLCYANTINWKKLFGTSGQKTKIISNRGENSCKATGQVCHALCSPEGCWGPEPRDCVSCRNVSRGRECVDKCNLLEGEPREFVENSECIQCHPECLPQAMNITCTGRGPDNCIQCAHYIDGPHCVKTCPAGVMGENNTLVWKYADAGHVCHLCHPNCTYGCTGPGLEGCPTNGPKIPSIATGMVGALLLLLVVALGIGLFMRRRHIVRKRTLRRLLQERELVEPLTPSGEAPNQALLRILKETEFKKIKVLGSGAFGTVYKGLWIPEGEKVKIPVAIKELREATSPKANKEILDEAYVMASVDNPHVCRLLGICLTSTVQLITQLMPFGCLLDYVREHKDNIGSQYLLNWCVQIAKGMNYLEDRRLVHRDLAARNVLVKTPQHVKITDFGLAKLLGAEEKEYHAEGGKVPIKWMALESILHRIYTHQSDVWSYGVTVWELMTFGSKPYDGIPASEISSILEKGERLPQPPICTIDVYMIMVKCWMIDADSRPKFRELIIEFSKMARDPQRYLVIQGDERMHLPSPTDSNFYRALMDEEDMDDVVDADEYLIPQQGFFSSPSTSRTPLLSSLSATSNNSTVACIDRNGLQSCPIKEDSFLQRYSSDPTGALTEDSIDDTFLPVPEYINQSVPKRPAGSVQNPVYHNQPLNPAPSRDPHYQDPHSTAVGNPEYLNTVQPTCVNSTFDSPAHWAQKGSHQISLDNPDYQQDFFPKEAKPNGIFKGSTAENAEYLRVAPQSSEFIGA

With COCCOc1cc2ncnc(Nc3cccc(-c4cn(Cc5ccccc5)nn4)c3)c2cc1OCCOC [e1, [3-(1-Benzyl-1H-[1,2,3]triazol-4-yl)-phenyl]-[6,7-bis-(2-methoxy-ethoxy)-quinazolin-4-yl]-amine] the melting point was 89 to 92 °C, the IC50 (wild-type EGFR; IC50 (μM) EGFR) was 1.34 µM and the Inhibition (wild-type EGFR; [1]) was 3.106 and 6.667. For the same compound, the inhibition at 0.0003 µM (wild-type EGFR; [2]) was 14.9%, the Inhibition (wild-type EGFR; [3]) was 12.7273 and the inhibition at 0.003 µM (wild-type EGFR; [4]) was 15.5%. For the same compound, the Inhibition (wild-type EGFR; [5]) was 27.2727, the inhibition at 0.03 µM (wild-type EGFR; [6]) was 28% and the Inhibition (wild-type EGFR; [7]) was 34.5455. The inhibition at 0.3 µM (wild-type EGFR; [8]) was 34.2%, the Inhibition (wild-type EGFR; [9]) was 43.6364 and the inhibition at 3 µM (wild-type EGFR; [10]) was 43.5%. It also gave an Inhibition (wild-type EGFR; [11]) of 45.4545, an inhibition at 30 µM (wild-type EGFR; [12]) of 73.9% and an Inhibition (wild-type EGFR; [13]) of 80.6061. The A450 (wild-type EGFR; concentration 0.0001 nM) was 0.408 and 0.407, the A450 (wild-type EGFR; concentration 0.03 nM) was 0.403 and 0.396 and the A450 (wild-type EGFR; concentration 0.3 nM) was 0.384 and 0.386. The A450 (wild-type EGFR; concentration 3 nM) was 0.383 and 0.362, the A450 (wild-type EGFR; concentration 30 nM) was 0.363 and 0.35 and the A450 (wild-type EGFR; concentration 300 nM) was 0.353 and 0.335. For the same compound, the A450 (wild-type EGFR; concentration 3000 nM) was 0.338 and 0.332, the A450 (wild-type EGFR; concentration 30000 nM) was 0.289 and 0.274 and the Inhibitory efficacy (H460 cells; [14]) was 0.09593 and 0.09213. For the same compound, the IC50 (H460 cells; Homo sapiens) was over 100 µM, the inhibition at 2 µM (H460 cells; [15]) was 11.9% and the IC50 (A549 cells; Homo sapiens) was over 100 µM. For the same compound, the IC50 (PC-9 cells; Homo sapiens) was over 100 µM, the inhibition at 4 µM (PC-9 cells; Homo sapiens, PC-9, read-out: Inhibitory efficacy, PC-9, 4uM, single repeats (Repeat 1-3), given as fraction) was 13.4% and the Inhibitory efficacy (PC-9 cells; PC-9, 4uM, 4 µM) was 0.07898 and 0.104. The Inhibitory efficacy (H1975 cells; [14]) was 0.214 and 0.1313, the Inhibitory efficacy (H1975 cells; [16]) was 0.2001 and 0.2011 and the Inhibitory efficacy (H1975 cells; [17]) was 0.2439 and 0.3137. For the same compound, the Inhibitory efficacy (H1975 cells; [18]) was 0.3018 and 0.3516, the IC50 (H1975 cells; Homo sapiens) was over 100 µM and the inhibition at 2 µM (H1975 cells; [19]) was 24.3%. For the same compound, the inhibition at 4 µM (H1975 cells; [20]) was 28.4%, the inhibition at 8 µM (H1975 cells; [21]) was 25.2% and the inhibition at 16 µM (H1975 cells; [22]) was 37.9%.

COCCOc1cc2ncnc(Nc3cccc(-c4cn(-c5ccc(C)cc5O)nn4)c3)c2cc1OCCOC [e18, 2-(4-{3-[6,7-Bis-(2-methoxy-ethoxy)-quinazolin-4-ylamino]-phenyl}-[1,2,3]triazol-1-yl)-5-methyl-phenol] gave a melting point of 100 to 103 °C, an inhibition at 100 fM (wild-type EGFR; concentration 0.0001 nM (reference for normalisation), one value per replicate column) of 0% and an inhibition at 30 pM (wild-type EGFR; concentration 0.03 nM, one value per replicate column) of 5.9%. The Inhibition (wild-type EGFR; [1]) was 7.547, the inhibition at 0.0003 µM (wild-type EGFR; [2]) was 9.63% and the Inhibition (wild-type EGFR; [3]) was 10.2916. It also gave an inhibition at 0.003 µM (wild-type EGFR; [4]) of 16.9%, an Inhibition (wild-type EGFR; [5]) of 12.693 and an inhibition at 0.03 µM (wild-type EGFR; [6]) of 21.1%. The Inhibition (wild-type EGFR; [7]) was 13.2075, the inhibition at 0.3 µM (wild-type EGFR; [8]) was 25.3% and the Inhibition (wild-type EGFR; [9]) was 17.1527. For the same compound, the inhibition at 3 µM (wild-type EGFR; [10]) was 26.1%, the Inhibition (wild-type EGFR; [11]) was 22.2985 and the inhibition at 30 µM (wild-type EGFR; [12]) was 68.9%. The Inhibition (wild-type EGFR; [13]) was 69.1252, the A450 (wild-type EGFR; concentration 0.0001 nM) was 0.879 and 0.798 and the A450 (wild-type EGFR; concentration 0.03 nM) was 0.841 and 0.754. The A450 (wild-type EGFR; concentration 0.3 nM) was 0.817 and 0.738, the A450 (wild-type EGFR; concentration 3 nM) was 0.77 and 0.724 and the A450 (wild-type EGFR; concentration 30 nM) was 0.743 and 0.721. The A450 (wild-type EGFR; concentration 300 nM) was 0.716 and 0.698, the A450 (wild-type EGFR; concentration 3000 nM) was 0.711 and 0.668 and the A450 (wild-type EGFR; concentration 30000 nM) was 0.435 and 0.395. The IC50 (wild-type EGFR; read-out: IC50 (μM) EGFR) was 12.4 µM, the Inhibitory efficacy (H460 cells; [23]) was 0.2332 and 0.2742 and the Inhibitory efficacy (H460 cells; [14]) was 0.4443 and 0.3282. The Inhibitory efficacy (H460 cells; [16]) was 0.5163 and 0.5814, the Inhibitory efficacy (H460 cells; [17]) was 0.5774 and 0.6654 and the Inhibitory efficacy (H460 cells; [18]) was 0.7445 and 0.6414. It also gave an IC50 (H460 cells; Homo sapiens) of 4.3 ± 0.62 µM, an inhibition at 1 µM (H460 cells; Homo sapiens, NCI-H460, read-out: Inhibitory efficacy, H460 cells, 1uM, given as fraction, Repeat 1-3) of 17.1% and an inhibition at 2 µM (H460 cells; [15]) of 27.5%. It also gave an inhibition at 4 µM (H460 cells; Homo sapiens, NCI-H460, read-out: Inhibitory efficacy, H460 cells, 4uM, given as fraction, Repeat 1-3) of 55.5%, an inhibition at 8 µM (H460 cells; Homo sapiens, NCI-H460, read-out: Inhibitory efficacy, H460 cells, 8uM, given as fraction, Repeat 1-3) of 55% and an inhibition at 16 µM (H460 cells; Homo sapiens, NCI-H460, read-out: Inhibitory efficacy, H460 cells, 16uM, given as fraction, Repeat 1-3) of 72.3%. For the same compound, the Inhibitory efficacy (A549 cells; [23]) was 0.3234 and 0.3188, the Inhibitory efficacy (A549 cells; [14]) was 0.4627 and 0.499 and the Inhibitory efficacy (A549 cells; [16]) was 0.5875 and 0.5347. For the same compound, the Inhibitory efficacy (A549 cells; [17]) was 0.7578 and 0.7459, the Inhibitory efficacy (A549 cells; [18]) was 0.8733 and 0.8713 and the IC50 (A549 cells; Homo sapiens) was 2.53 ± 0.2 µM. It also gave an inhibition at 1 µM (A549 cells; Homo sapiens, A549, read-out: Inhibitory efficacy, A549 cells, 1uM, given as fraction, Repeat 1-3) of 24.6%, an inhibition at 2 µM (A549 cells; Homo sapiens, A549, read-out: Inhibitory efficacy, A549 cells, 2uM, given as fraction, Repeat 1-3) of 37.2% and an inhibition at 4 µM (A549 cells; Homo sapiens, A549, read-out: Inhibitory efficacy, A549 cells, 4uM, given as fraction, Repeat 1-3) of 66.7%. The inhibition at 8 µM (A549 cells; Homo sapiens, A549, read-out: Inhibitory efficacy, A549 cells, 8uM, given as fraction, Repeat 1-3) was 73.2%, the inhibition at 16 µM (A549 cells; Homo sapiens, A549, read-out: Inhibitory efficacy, A549 cells, 16uM, given as fraction, Repeat 1-3) was 88.9% and the IC50 (PC-9 cells; Homo sapiens) was 15.2 ± 0.75 µM. For the same compound, the inhibition at 8 µM (PC-9 cells; Homo sapiens, PC-9, read-out: Inhibitory efficacy, PC-9, 8uM, single repeats (Repeat 1-3), given as fraction) was 25.2%, the inhibition at 16 µM (PC-9 cells; Homo sapiens, PC-9, read-out: Inhibitory efficacy, PC-9, 16uM, single repeats (Repeat 1-3), given as fraction) was 48.5% and the Inhibitory efficacy (PC-9 cells; PC-9, 8uM, 8 µM) was 0.3051 and 0.2654. For the same compound, the Inhibitory efficacy (PC-9 cells; PC-9, 16uM, 16 µM) was 0.5238 and 0.4787, the Inhibitory efficacy (H1975 cells; [23]) was 0.2067 and 0.1552 and the Inhibitory efficacy (H1975 cells; [14]) was 0.2381 and 0.2095. For the same compound, the Inhibitory efficacy (H1975 cells; [16]) was 0.3038 and 0.341, the Inhibitory efficacy (H1975 cells; [17]) was 0.4524 and 0.4681 and the Inhibitory efficacy (H1975 cells; [18]) was 0.6095 and 0.6024. For the same compound, the IC50 (H1975 cells; Homo sapiens) was 10 ± 0.69 µM, the inhibition at 1 µM (H1975 cells; Homo sapiens, NCI-H1975, read-out: Inhibitory efficacy, H1975 cells, 1uM, given as fraction, Repeat 1-3) was 16.5% and the inhibition at 2 µM (H1975 cells; [19]) was 26.2%. It also gave an inhibition at 4 µM (H1975 cells; [20]) of 33.4%, an inhibition at 8 µM (H1975 cells; [21]) of 46.7% and an inhibition at 16 µM (H1975 cells; [22]) of 55.4%.

— article PMC8776995 (Frontiers in Chemistry, 2022)
